According to ChEMBL document CHEMBL1156854, “Design and synthesis of piperazine-indole p38 alpha MAP kinase inhibitors with improved pharmacokinetic profiles” (Bioorg Med Chem Lett, 2010):

Legend:
[1] = tested on: Rattus norvegicus; experiment: Volume of distribution in po dosed rat; format: ADME, organism-based; conditions: in vivo
[2] = Oral bioavailability in rat; format: ADME, organism-based; conditions: in vivo
[3] = AUC in po dosed dog; format: ADME, organism-based, Canis lupus familiaris; conditions: plasma
[4] = Cmax in dog; format: ADME, organism-based, Canis lupus familiaris; conditions: in vivo
[5] = Tmax in rat; format: ADME, organism-based; conditions: in vivo
[6] = AUC in iv dosed rat; format: ADME, organism-based; conditions: plasma
[7] = Cmax in monkey; format: ADME, organism-based, Macaca mulatta; conditions: rhesus monkey, in vivo
[8] = Clearance in po dosed dog; format: ADME, organism-based, Canis lupus familiaris; conditions: in vivo
[9] = tested on: Liver microsomes; experiment: Metabolic stability in rat liver microsomes assessed as parent compound level; format: ADME, Microsome
[10] = AUC in po dosed rat; format: ADME, organism-based; conditions: plasma
[11] = Cmax in rat; format: ADME, organism-based; conditions: in vivo
[12] = Clearance in po dosed rat; format: ADME, organism-based; conditions: in vivo
[13] = Tmax in monkey; format: ADME, organism-based, Macaca mulatta; conditions: rhesus monkey, in vivo
[14] = tested on: Liver microsomes; experiment: Metabolic stability in rat liver microsomes assessed as demethylated metabolite level; format: ADME, Microsome
[15] = Metabolic stability in monkey liver microsomes assessed as demethylated metabolite level; format: ADME, Macaca mulatta, Microsome; conditions: rhesus monkey
[16] = tested on: Liver microsomes; experiment: Metabolic stability in human liver microsomes assessed as parent compound level; format: ADME, Microsome
[17] = tested on: Canis familiaris; experiment: Volume of distribution in po dosed dog; format: ADME, organism-based, Canis lupus familiaris; conditions: in vivo
[18] = Tmax in dog; format: ADME, organism-based, Canis lupus familiaris; conditions: in vivo
[19] = Metabolic stability in monkey liver microsomes assessed as parent compound level; format: ADME, Macaca mulatta, Microsome; conditions: rhesus monkey
[20] = AUC in po dosed monkey; format: ADME, organism-based, Macaca mulatta; conditions: rhesus monkey, plasma
[21] = Oral bioavailability in dog; format: ADME, organism-based, Canis lupus familiaris; conditions: in vivo
[22] = AUC in iv dosed dog; format: ADME, organism-based, Canis lupus familiaris; conditions: plasma
[23] = Metabolic stability in dog liver microsomes assessed as parent compound level; format: ADME, Canis lupus familiaris, Microsome
[24] = Oral bioavailability in monkey; format: ADME, organism-based, Macaca mulatta; conditions: rhesus monkey, in vivo

`C[C@@H]1CN(C(c2ccccc2)c2ccccc2)[C@@H](C)CN1C(=O)c1cc2c(C(=O)C(=O)N(C)C)cn(C)c2cc1Cl` showed a Vd [1] of 2.7 L/kg, a bioavailability [2] of 31% and an AUC [3] of 5610 ng·h/mL. The Cmax [4] was 899 ng/mL, the Tmax [5] was 1.2 h and the AUC [6] was 810 ng·h/mL. It also gave a Cmax [7] of 360 ng/mL, a CL/F [8] of 3.33 mL/min/kg and a Stability [9] of 83.9%. The AUC [10] was 1270 ng·h/mL, the Cmax [11] was 367 ng/mL and the CL/F [12] was 20 mL/min/kg. For the same compound, the Tmax [13] was 2 h, the Stability [14] was 9.4% and the Stability [15] was 19.5%. For the same compound, the Stability [16] was 90.8%, the Vd [17] was 6.5 L/kg and the Tmax [18] was 1.3 h. For the same compound, the Stability [19] was 71.4%, the AUC [20] was 1830 ng·h/mL and the bioavailability [21] was 33%. For the same compound, the AUC [22] was 3430 ng·h/mL and the Stability [23] was 91.7%.
`C[C@@H]1CN(Cc2ccc(F)cc2)[C@@H](C)CN1C(=O)c1cc2c(C(=O)C(=O)N(C)C)cn(C)c2cc1Cl` [TALMAPIMOD] gave a Stability [9] of 65.8%, a bioavailability [24] of 12% and a Stability [14] of 3.2%. It also gave a Stability [15] of 11.9%, a Stability [16] of 65.1% and a Stability [19] of 51.2%. The bioavailability [21] was 69% and the Stability [23] was 94.5%.
